Consider 28 compounds from US20260132140A1, “IMIDAZOLYL-AMINO-PYRAZINE-CARBONITRILS AS CHK-1 INHIBITORS” (BenevolentAI Bio Limited, priority 2022, published 2026).

The target of one assay is human Chk2 kinase (Homo sapiens, UniProt O96017). Nature of the assay: biochemical.
For the next assay, the target named is T1, human Chk1 kinase (Homo sapiens, UniProt O14757).
T1 sequence (O14757 1-476): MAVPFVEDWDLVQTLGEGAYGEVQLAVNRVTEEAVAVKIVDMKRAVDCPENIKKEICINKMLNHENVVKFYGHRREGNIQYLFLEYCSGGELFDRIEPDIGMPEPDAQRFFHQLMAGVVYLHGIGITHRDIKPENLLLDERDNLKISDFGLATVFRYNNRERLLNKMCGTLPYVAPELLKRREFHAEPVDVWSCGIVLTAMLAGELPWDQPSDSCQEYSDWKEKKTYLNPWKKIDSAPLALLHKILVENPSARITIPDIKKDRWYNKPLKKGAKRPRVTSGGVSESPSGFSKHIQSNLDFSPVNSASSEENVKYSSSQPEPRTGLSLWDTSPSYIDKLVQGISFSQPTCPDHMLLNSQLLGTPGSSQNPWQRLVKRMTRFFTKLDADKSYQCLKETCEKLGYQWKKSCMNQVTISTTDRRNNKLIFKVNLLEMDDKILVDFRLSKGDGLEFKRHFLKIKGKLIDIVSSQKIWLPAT
Nature of the assay: biochemical.

human Chk2 kinase, sequence (O96017 whole entry): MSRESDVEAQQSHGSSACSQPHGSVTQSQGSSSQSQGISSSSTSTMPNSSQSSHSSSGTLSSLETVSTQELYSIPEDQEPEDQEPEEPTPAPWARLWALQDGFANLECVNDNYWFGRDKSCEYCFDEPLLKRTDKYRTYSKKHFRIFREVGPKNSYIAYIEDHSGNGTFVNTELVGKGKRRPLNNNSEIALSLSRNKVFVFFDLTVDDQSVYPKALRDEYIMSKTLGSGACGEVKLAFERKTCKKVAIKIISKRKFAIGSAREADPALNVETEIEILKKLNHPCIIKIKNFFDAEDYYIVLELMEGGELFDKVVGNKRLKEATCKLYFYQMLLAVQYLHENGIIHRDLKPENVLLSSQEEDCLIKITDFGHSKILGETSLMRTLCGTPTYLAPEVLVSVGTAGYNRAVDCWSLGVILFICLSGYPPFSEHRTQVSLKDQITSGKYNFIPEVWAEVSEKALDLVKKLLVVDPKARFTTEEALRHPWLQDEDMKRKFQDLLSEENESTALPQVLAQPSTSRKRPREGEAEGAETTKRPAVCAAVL

In general, IC50 refers to the concentration at which inhibition is half-maximal. With `CN1CCOC(c2ccc(-n3cnc(Nc4cnc(C#N)cn4)c3)cc2)C1` (single isomer, unassigned) [Example 105, 5-((1-(4-(4-Methylmorpholin-2-yl)phenyl)-1H-imidazol-4-yl)amino)pyrazine-2-carbonitrile], the IC50 against human Chk2 kinase lay within 10000 to 100000 nM; on human Chk1 kinase it was 31.6 to 100 nM. `CN(C)CC1CN(c2cccc(-n3cnc(Nc4cnc(C#N)cn4)c3)c2)CCO1` (single isomer, unassigned) [Example 107, 5-((1-(3-(2-((Dimethylamino)methyl)morpholino)phenyl)-1H-imidazol-4-yl)amino)pyrazine-2-carbonitrile]: the IC50 on human Chk2 kinase was 10000 to 100000 nM; at human Chk1 kinase, 31.6 to 100 nM. Take `CN(CCO)C1CCN(c2cccc(-n3cnc(Nc4cnc(C#N)cn4)c3)c2)C1` (single isomer, unassigned) [Example 109, 5-((1-(3-(3-((2-Hydroxyethyl)(methyl)amino)pyrrolidin-1-yl)phenyl)-1H-imidazol-4-yl)amino)pyrazine-2-carbonitrile]: the IC50 against human Chk2 kinase is above 100000 nM; on human Chk1 kinase, 10 to 31.6 nM. For the compound `CN(C)C1CCCN(c2cccc(-n3cnc(Nc4cnc(C#N)cn4)c3)c2)C1` (single isomer, unassigned) [Example 111, 5-((1-(3-(3-(Dimethylamino)piperidin-1-yl)phenyl)-1H-imidazol-4-yl)amino)pyrazine-2-carbonitrile], the IC50 against human Chk2 kinase was 10000 to 100000 nM; at human Chk1 kinase, 31.6 to 100 nM. As to `N#Cc1cnc(Nc2cn(-c3ccc(N4CCC(N5CCC5)C4)cc3)cn2)cn1` (single isomer, unassigned) [Example 114, 5-((1-(4-(3-(Azetidin-1-yl)pyrrolidin-1-yl)phenyl)-1H-imidazol-4-yl)amino)pyrazine-2-carbonitrile], the IC50 is 1000 to 10000 nM at human Chk2 kinase and below 10 nM on human Chk1 kinase. `CN(C)CC1CCN(c2ccc(-n3cnc(Nc4cnc(C#N)cn4)c3)cc2)C1` (single isomer, unassigned) [Example 115, 5-((1-(4-(3-((Dimethylamino)methyl)pyrrolidin-1-yl)phenyl)-1H-imidazol-4-yl)amino)pyrazine-2-carbonitrile] had a concentration for half-maximal inhibition (IC50) on human Chk1 kinase of 31.6 to 100 nM. In the case of `N#Cc1cnc(Nc2cn(-c3ccc(N4CCN5CCCC5C4)cc3)cn2)cn1` (single isomer, unassigned) [Example 117, 5-((1-(4-(Hexahydropyrrolo[1,2-a]pyrazin-2(1H)-yl)phenyl)-1H-imidazol-4-yl)amino)pyrazine-2-carbonitrile], the IC50 was above 100000 nM against human Chk2 kinase and 10 to 31.6 nM against human Chk1 kinase. Consider `CN1CCC2(CCN2c2ccc(-n3cnc(Nc4cnc(C#N)cn4)c3)cc2)C1` (single isomer, unassigned) [Example 119, 5-((1-(4-(6-Methyl-1,6-diazaspiro[3.4]octan-1-yl)phenyl)-1H-imidazol-4-yl)amino)pyrazine-2-carbonitrile], for which the values for the IC50 against human Chk2 kinase and against human Chk1 kinase were 10000 to 100000 nM and 10 to 31.6 nM, respectively. As to `CN(C)C1CCCN(c2ccc(-n3cnc(Nc4cnc(C#N)cn4)c3)cc2)C1` (single isomer, unassigned) [Example 121, 5-((1-(4-(3-(Dimethylamino)piperidin-1-yl)phenyl)-1H-imidazol-4-yl)amino)pyrazine-2-carbonitrile], the IC50 is above 100000 nM against human Chk2 kinase and below 10 nM at human Chk1 kinase.

`CN(C)C1CCCN(c2ccc(-n3cnc(Nc4cnc(C#N)cn4)c3)cc2)C1` (single isomer, unassigned) [Example 122, 5-((1-(4-(3-(Dimethylamino)piperidin-1-yl)phenyl)-1H-imidazol-4-yl)amino)pyrazine-2-carbonitrile]: the IC50 against human Chk2 kinase was in the range of 10000 to 100000 nM; at human Chk1 kinase it was 10 to 31.6 nM. As to `CC1(C)CN(C2CCN(c3ccc(-n4cnc(Nc5cnc(C#N)cn5)c4)cc3)C2)C1` (single isomer, unassigned) [Example 123, 5-((1-(4-(3-(3,3-Dimethylazetidin-1-yl)pyrrolidin-1-yl)phenyl)-1H-imidazol-4-yl)amino)pyrazine-2-carbonitrile], the IC50 was above 100000 nM on human Chk2 kinase and 10 to 31.6 nM on human Chk1 kinase.

For the compound `CC1CN(C2CCN(c3ccc(-n4cnc(Nc5cnc(C#N)cn5)c4)cc3)C2)C1` (single isomer, unassigned) [Example 125, 5-((1-(4-(3-(3-Methylazetidin-1-yl)pyrrolidin-1-yl)phenyl)-1H-imidazol-4-yl)amino)pyrazine-2-carbonitrile], the IC50 fell in the range of 1000 to 10000 nM at human Chk2 kinase and 10 to 31.6 nM at human Chk1 kinase. Turning to `CN1CCC12CCN(c1ccc(-n3cnc(Nc4cnc(C#N)cn4)c3)cc1)C2` (single isomer, unassigned) [Example 127, 5-((1-(4-(1-Methyl-1,6-diazaspiro[3.4]octan-6-yl)phenyl)-1H-imidazol-4-yl)amino)pyrazine-2-carbonitrile], the IC50 on human Chk2 kinase was above 100000 nM; on human Chk1 kinase, 10 to 31.6 nM.

For the compound `N#Cc1cnc(Nc2cn(-c3ccc(N4CCC(N5CC(F)C5)C4)cc3)cn2)cn1` (single isomer, unassigned) [Example 129, 5-((1-(4-(3-(3-Fluoroazetidin-1-yl)pyrrolidin-1-yl)phenyl)-1H-imidazol-4-yl)amino)pyrazine-2-carbonitrile], the IC50 at human Chk2 kinase is above 100000 nM; on human Chk1 kinase, 31.6 to 100 nM. On to `N#Cc1cnc(Nc2cn(-c3ccc(N4CCC(N5CC(F)C5)C4)cc3)cn2)cn1` (single isomer, unassigned) [Example 130, 5-((1-(4-(3-(3-Fluoroazetidin-1-yl)pyrrolidin-1-yl)phenyl)-1H-imidazol-4-yl)amino)pyrazine-2-carbonitrile], for which the IC50 was 1000 to 10000 nM against human Chk2 kinase and 10 to 31.6 nM at human Chk1 kinase.

As to `N#Cc1cnc(Nc2cn(-c3ccc(N4CCC(N5CC6(CCC6)C5)C4)cc3)cn2)cn1` (single isomer, unassigned) [Example 131, 5-((1-(4-(3-(2-Azaspiro[3.3]heptan-2-yl)pyrrolidin-1-yl)phenyl)-1H-imidazol-4-yl)amino)pyrazine-2-carbonitrile], the IC50 against human Chk2 kinase was 1000 to 10000 nM; against human Chk1 kinase, 10 to 31.6 nM. For the compound `CC(C)C1CN(C2CCN(c3ccc(-n4cnc(Nc5cnc(C#N)cn5)c4)cc3)C2)C1` (single isomer, unassigned) [Example 133, 5-((1-(4-(3-(3-Isopropylazetidin-1-yl)pyrrolidin-1-yl)phenyl)-1H-imidazol-4-yl)amino)pyrazine-2-carbonitrile], the results for the IC50 against human Chk2 kinase and on human Chk1 kinase were 10000 to 100000 nM and below 10 nM, respectively. As for `CC(C)C1CN(C2CCN(c3ccc(-n4cnc(Nc5cnc(C#N)cn5)c4)cc3)C2)C1` (single isomer, unassigned) [Example 134, 5-((1-(4-(3-(3-Isopropylazetidin-1-yl)pyrrolidin-1-yl)phenyl)-1H-imidazol-4-yl)amino)pyrazine-2-carbonitrile], the IC50 was above 100000 nM at human Chk2 kinase and 10 to 31.6 nM at human Chk1 kinase. For the compound `C[C@@H]1CCN1C1CCN(c2ccc(-n3cnc(Nc4cnc(C#N)cn4)c3)cc2)C1` (single isomer, unassigned) [Example 135], the IC50 against human Chk2 kinase lay within 10000 to 100000 nM; against human Chk1 kinase, 10 to 31.6 nM.

Take `C[C@@H]1CCN1C1CCN(c2ccc(-n3cnc(Nc4cnc(C#N)cn4)c3)cc2)C1` (single isomer, unassigned) [Example 136]: the IC50 against human Chk2 kinase was above 100000 nM; against human Chk1 kinase, 31.6 to 100 nM. `C[C@H]1CCN1C1CCN(c2ccc(-n3cnc(Nc4cnc(C#N)cn4)c3)cc2)C1` (single isomer, unassigned) [Example 137]: the IC50 at human Chk2 kinase was above 100000 nM; against human Chk1 kinase it was 10 to 31.6 nM. On to `CN1CC2(C1)CN(c1ccc(-n3cnc(Nc4cnc(C#N)cn4)c3)cc1)C2` [Example 11, 5-((1-(4-(6-Methyl-2,6-diazaspiro[3.3]heptan-2-yl)phenyl)-1H-imidazol-4-yl)amino)pyrazine-2-carbonitrile], for which the IC50 against human Chk1 kinase was in the range of 10 to 31.6 nM.

As for `CN(C)[C@H]1CCN(c2ccc(-n3cnc(Nc4cnc(C#N)cn4)c3)cc2)C1` [Example 15, (S)-5-((1-(4-(3-(Dimethylamino)pyrrolidin-1-yl)phenyl)-1H-imidazol-4-yl)amino)pyrazine-2-carbonitrile], the IC50 at human Chk1 kinase was 31.6 to 100 nM. The compound `CN1CCN(C(=O)c2ccc(-n3cnc(Nc4cnc(C#N)cn4)c3)cc2)CC1` [Example 144, 5-((1-(4-(4-Methylpiperazine-1-carbonyl)phenyl)-1H-imidazol-4-yl)amino)pyrazine-2-carbonitrile] registered an IC50 against human Chk1 kinase of 100 to 316 nM. As to `Cc1cc(N2CCN(C)CC2)ccc1-n1cnc(Nc2cnc(C#N)cn2)c1` [Example 145, 5-((1-(2-methyl-4-(4-Methylpiperazin-1-yl)phenyl)-1H-imidazol-4-yl)amino)pyrazine-2-carbonitrile], the IC50 at human Chk1 kinase lay within 316 to 1000 nM. Same read-out and setting: as for `N#Cc1cnc(Nc2cn(-c3ccc(N4CC[C@@H](N5CCCC5)C4)cc3)cn2)cn1` [Example 147, (R)-5-((1-(4-([1,3′-Bipyrrolidin]-1′-yl)phenyl)-1H-imidazol-4-yl)amino)pyrazine-2-carbonitrile], the figure is 10 to 31.6 nM; as for `CN[C@H]1CN(c2ccc(-n3cnc(Nc4cnc(C#N)cn4)c3)cc2)C[C@H]1OC` [Example 163, 5-((1-(4-((3R,4S)-3-Methoxy-4-(methylamino)pyrrolidin-1-yl)phenyl)-1H-imidazol-4-yl)amino)pyrazine-2-carbonitrile], 10 to 31.6 nM; as for `CCN1CCN(c2ccc(-n3cnc(Nc4cnc(C#N)cn4)c3)cc2)CC1` [Example 185, 5-((1-(4-(4-Ethylpiperazin-1-yl)phenyl)-1H-imidazol-4-yl)amino)pyrazine-2-carbonitrile], 10 to 31.6 nM.
